Measured values: ChEMBL document CHEMBL1649264, “ATP synthase inhibition of Mycobacterium avium is not bactericidal” (2009)
In brackets after ≈: the same amount, converted by molar mass. Several values for one entry are separate records, joined by “and”; a condition that tells them apart may be missing. Equal values may be shown once.

What was measured:
Type in all cases: functional
Mycobacterium avium [1] = experiment: Antitubercular activity against Mycobacterium avium infected in C57BL/6J mouse assessed as reduction of CFU counts in spleen at 150 mg/kg, sc administered one month post-infection five times weekly for 3 months (reference value: 7.9 +/- 0.7 log10CFU); details: route subcutaneous
Mycobacterium avium [2] = experiment: Antitubercular activity against Mycobacterium avium infected in C57BL/6J mouse assessed as reduction of CFU counts in spleen at 25 mg/kg, po administered one month post-infection five times weekly for 4 months (reference value: 8.9 +/- 0.3 log10CFU)
Mycobacterium avium [3] = experiment: Antitubercular activity against Mycobacterium avium infected in C57BL/6J mouse assessed as reduction of CFU counts in spleen at 25 mg/kg, po administered one month post-infection five times weekly for 1 month (reference value: 7.4 +/- 1.7 log10CFU)
Mycobacterium avium [4] = experiment: Antitubercular activity against Mycobacterium avium infected in C57BL/6J mouse assessed as reduction of CFU counts in spleen at 200 mg/kg, po administered one month post-infection five times weekly for 2 months (reference value: 9.4 +/- 0.2 log10CFU)
Mycobacterium avium [5] = experiment: Antimicrobial activity against Mycobacterium avium
[6] = system: Mycobacterium tuberculosis; experiment: Antimicrobial activity against Mycobacterium tuberculosis
Mycobacterium avium [7] = experiment: Antitubercular activity against Mycobacterium avium infected in C57BL/6J mouse assessed as reduction of CFU counts in spleen at 25 mg/kg, po administered one day post-infection five times weekly for 1 month (reference value: 8.0 +/- 0.9 log10CFU)
Mycobacterium avium [8] = experiment: Antitubercular activity against Mycobacterium avium infected in C57BL/6J mouse assessed as reduction of CFU counts in spleen at 25 mg/kg, po administered one month post-infection five times weekly for 3 months (reference value: 7.9 +/- 0.7 log10CFU)
Mycobacterium avium [9] = experiment: Antitubercular activity against Mycobacterium avium infected in C57BL/6J mouse assessed as reduction of CFU counts in spleen at 150 mg/kg, sc administered one month post-infection five times weekly for 2 months (reference value: 9.4 +/- 0.2 log10CFU); details: route subcutaneous
Mycobacterium avium [10] = experiment: Antitubercular activity against Mycobacterium avium infected in C57BL/6J mouse assessed as reduction of CFU counts in spleen at 200 mg/kg, po administered one month post-infection five times weekly for 4 months (reference value: 8.9 +/- 0.3 log10CFU)
Mycobacterium avium [11] = experiment: Antitubercular activity against Mycobacterium avium infected in C57BL/6J mouse assessed as reduction of CFU counts in spleen at 200 mg/kg, po administered one month post-infection five times weekly for 1 month (reference value: 7.4 +/- 1.7 log10CFU)
Mycobacterium avium [12] = experiment: Antitubercular activity against Mycobacterium avium infected in C57BL/6J mouse assessed as reduction of CFU counts in spleen at 200 mg/kg, po administered one day post-infection five times weekly for 1 month (reference value: 8.0 +/- 0.9 log10CFU)
Mycobacterium avium [13] = experiment: Antitubercular activity against Mycobacterium avium infected in C57BL/6J mouse assessed as reduction of CFU counts in spleen at 150 mg/kg, sc administered one month post-infection five times weekly for 4 months (reference value: 8.9 +/- 0.3 log10CFU); details: route subcutaneous
Mycobacterium avium [14] = experiment: Antitubercular activity against Mycobacterium avium infected in C57BL/6J mouse assessed as reduction of CFU counts in spleen at 150 mg/kg, sc administered one month post-infection five times weekly for 1 month (reference value: 7.4 +/- 1.7 log10CFU); details: route subcutaneous
Mycobacterium avium [15] = experiment: Antitubercular activity against Mycobacterium avium infected in C57BL/6J mouse assessed as reduction of CFU counts in spleen at 25 mg/kg, po administered one month post-infection five times weekly for 2 months (reference value: 9.4 +/- 0.2 log10CFU)
Mycobacterium avium [16] = experiment: Antitubercular activity against Mycobacterium avium infected in C57BL/6J mouse assessed as reduction of CFU counts in spleen at 200 mg/kg, po administered one month post-infection five times weekly for 3 months (reference value: 7.9 +/- 0.7 log10CFU)

COc1nc2ccc(Br)cc2cc1[C@@H](c1ccccc1)[C@@](O)(CCN(C)C)c1cccc2ccccc12 [BEDAQUILINE] gave a log10cfu (Mycobacterium avium [1]) of 6.6, a log10cfu (Mycobacterium avium [2]) of 6.5 and a log10cfu (Mycobacterium avium [3]) of 6.5. For the same molecule, the log10cfu (Mycobacterium avium [4]) was 7.7, the MIC (Mycobacterium avium [5]) was 0.007 µg/mL and 0.015 µg/mL and the MIC [6] was 0.06 µg/mL (≈ 0.108 µM). For the same molecule, the log10cfu (Mycobacterium avium [7]) was 5.4.
For CC[C@H]1OC(=O)[C@H](C)[C@@H](O[C@H]2C[C@@](C)(OC)[C@@H](O)[C@H](C)O2)[C@H](C)[C@@H](O[C@@H]2O[C@H](C)C[C@H](N(C)C)[C@H]2O)[C@](C)(OC)C[C@@H](C)C(=O)[C@H](C)[C@@H](O)[C@]1(C)O [CLARITHROMYCIN], the log10cfu (Mycobacterium avium [8]) was 6.2, the log10cfu (Mycobacterium avium [9]) was 5 and the log10cfu (Mycobacterium avium [10]) was 7.2. For the same molecule, the log10cfu (Mycobacterium avium [11]) was 6.6 and the log10cfu (Mycobacterium avium [12]) was 6.
Molecule NCC[C@H](O)C(=O)N[C@@H]1C[C@H](N)[C@@H](O[C@H]2O[C@H](CN)[C@@H](O)[C@H](O)[C@H]2O)[C@H](O)[C@H]1O[C@H]1O[C@H](CO)[C@@H](O)[C@H](N)[C@H]1O [AMIKACIN] has a log10cfu (Mycobacterium avium [13]) of 3.5, a log10cfu (Mycobacterium avium [14]) of 5.9 and a log10cfu (Mycobacterium avium [15]) of 6.7. The log10cfu (Mycobacterium avium [16]) was 7.2.
